Data reported in the Bradley open melting point set (2014).

melting point	SMILES
44 °C	N#Cc1ccc(Oc2ccccc2)cc1 [4-phenoxybenzonitrile]
76 °C	O=C(O)Cc1ccc(Oc2ccccc2)cc1 [4-phenoxyphenylacetic acid]
57 °C	c1ccc(-c2csc(-c3ccccn3)n2)cc1 [4-phenyl-2-(2-pyridyl)thiazole]
48 °C	Cc1cccc(-c2nc(-c3ccccc3)cs2)c1 [4-phenyl-2-(m-tolyl)thiazole]
58 °C	Cc1ccc(-c2nc(-c3ccccc3)cs2)cc1 [4-phenyl-2-(p-tolyl)thiazole]
32 °C	CC(C)(O)CCc1ccccc1 [4-phenyl-2-methyl-2-butanol]
52 °C	O=C(O)CCCc1ccccc1 [4-phenylbutyric acid]
80 °C	O=C1CCC(c2ccccc2)CC1 [4-phenylcyclohexanone]
208 °C	O=c1[nH][nH]c(=O)n1-c1ccccc1 [4-phenylurazole]
166 °C	CC(C)(C)c1ccc(C(=O)O)cc1 [4-tert-butylbenzoic acid]
142 °C	C=Cc1ccc(C(=O)O)cc1 [4-vinylbenzoic acid]
149 °C	Nc1cc(-c2ccccc2)c(O)c(-c2ccccc2)c1 [5'-Amino-1,1':3',1''-terphenyl-2'-ol]
296 °C	O=C1NC(=O)C(c2ccccc2)(c2ccccc2)N1 [5,5-diphenylhydantoin]
209 °C	c1ccc(COc2cccc(-c3nnn[nH]3)c2)cc1 [5-(3-benzyloxyphenyl)-1h-tetrazole]
157 °C	COc1cccc(-c2nnn[nH]2)c1 [5-(3-methoxyphenyl)-1h-tetrazole]
319 °C	Nc1cccc2c(=O)[nH][nH]c(=O)c12 [5-Amino-2,3-dihydrophthalazine-1,4-dione]
161 °C	Cc1ccc(N)cc1O [5-Amino-o-cresol]
164 °C	N#CCc1nn(-c2ccccc2)c(N)c1C#N [5-amino-4-cyano-3-cyanomethyl-1-phenyl-1h-pyrazole,]
129 °C	Nc1cccc2cnccc12 [5-aminoisoquinoline]
280 °C	Nc1ccc(O)c(C(=O)O)c1 [5-aminosalicylic acid]
112 °C	Cc1cc2cc(Cl)ccc2[nH]1 [5-chloro-2-methylindole]
123 °C	Oc1ccc(Cl)c2cccnc12 [5-chloro-8-hydroxyquinoline]
174 °C	O=C(O)c1cc(Cl)ccc1O [5-chlorosalicylic acid]
170 °C	O=C(O)c1cc(O)ccc1[N+](=O)[O-] [5-hydroxy-2-nitrobenzoic acid]
222 °C	Clc1ccc(-c2ccnc(Cl)c2)cn1 [6,2'-dichloro-3,4'-bipyridine]
169 °C	O=C1CCC(c2ccc(Br)cc2)=NN1 [6-(4-bromophenyl)-4,5-dihydro-3(2h)-pyridazinone]
166 °C	COc1ccc2nc(N)sc2c1 [6-Methoxy-1,3-benzothiazol-2-amine]

Second part, the compound before the results:

SMILES	melting point
C=CCCC(=O)O [4-pentenoic acid]	-22 °C
Cc1cc[n+]([O-])cc1 [4-picoline n-oxide]	184 °C
CC(C)(C)c1ccc(B(O)O)cc1 [4-tert-butylbenzeneboronic acid]	194 °C
CCC(C)(C)c1ccc(O)cc1 [4-tert-pentylphenol]	89 °C
O=S(=O)(Cl)Cc1ccc(C(F)(F)F)cc1 [4-trifluoromethyl-alpha-toluenesulfonyl chloride]	104 °C
Cc1cc2nsnc2cc1C [5,6-dimethyl-2,1,3-benzothiadiazole]	84 °C
Clc1cc(Cl)cc(-c2nnn[nH]2)c1 [5-(3,5-dichlorophenyl)-1h-tetrazole]	207 °C
CN(C)c1ccc(/C=C2\SC(=S)NC2=O)cc1 [5-(4-dimethylaminobenzylidene)rhodanine]	278 °C
CCSc1nnn[nH]1 [5-(ethylthio)-1h-tetrazole]	76 °C
O=c1[nH]cc(C(F)(F)F)c(=O)[nH]1 [5-(trifluoromethyl)uracil]	253 °C
Oc1cc(Cl)ccc1Oc1ccc(Cl)cc1Cl [5-Chloro-2-(2,4-dichlorophenoxy)phenol]	57 °C
Cc1ccc(C(C)C)cc1O [5-Isopropyl-2-methylphenol]	2 °C
COc1ccc2c(c1)no[n+]2[O-] [5-Methoxybenzofurazan, 1-oxide]	118 °C
O=C1CC[C@@H](C(=O)O)N1 [5-Oxo-L-proline]	162 °C
O=C(O)CCCC[C@@H]1CCSS1 [5-[(3R)-1,2-Dithiolan-3-yl]pentanoic acid]	60 °C
NCCCCCO [5-amino-1-pentanol]	36 °C
Cn1ncc(Br)c1N [5-amino-4-bromo-1-methyl-1h-pyrazole]	99 °C
NCCCCC(=O)O [5-aminovaleric acid]	157 °C
Cc1cc(C)c(Br)cc1C [5-bromo-1,2,4-trimethylbenzene]	72 °C
Cc1cc(Br)cn(C)c1=O [5-bromo-1,3-dimethyl-2-pyridone]	106 °C

SMILES	melting point
CN1CC(Br)C(=O)NC1=O (stereo unspecified) [5-bromo-1-methyldihydropyrimidine-2,4(1H,3H)-dione]	149 °C
O=c1[nH]c(=O)n([C@@H]2O[C@H](CO)[C@@H](O)[C@H]2O)cc1Br [5-bromouridine]	192 °C
Nc1cc(Cl)ccc1O [5-chloro-2-hydroxyaniline]	143 °C
COc1ccc(Cl)cc1B(O)O [5-chloro-2-methoxybenzeneboronic acid]	138 °C
N#CCc1csc2ccc(Cl)cc12 [5-chlorobenzo[b]thiophene-3-acetonitrile]	134 °C
OB(O)c1ccc(Cl)s1 [5-chlorothiophene-2-boronic acid]	138 °C
CCc1ccc(C)nc1 [5-ethyl-2-methylpyridine]	-71 °C
Cn1nnnc1S [5-mercapto-1-methyltetrazole]	127 °C
COc1ccc2c(c1)C(=O)C(=O)N2 [5-methoxyisatin]	201 °C
Cc1nnc(S)s1 [5-methyl-1,3,4-thiadiazole-2-thiol]	187 °C
CC(=O)OC1CCC2(C)C3CCC4(C)C(=O)CCC4C3C(=O)CC2(C)C1 (stereo unspecified) [5-methyl-7,17-dioxoandrostan-3-yl acetate]	155 °C
Cc1ccc2[nH]cnc2c1 [5-methylbenzimidazole]	115 °C
Cc1ccc2c(c1)no[n+]2[O-] [5-methylbenzofuroxan]	97 °C
Cc1cc(C)cc([N+](=O)[O-])c1 [5-nitro-1,3-dimethylbenzene]	74 °C
O=Cc1ccc([N+](=O)[O-])o1 [5-nitro-2-furaldehyde]	36 °C
OC[C@@H]1[C@H](CO)[C@@H]2C=C[C@H]1C2 [5-norbornene-2-endo,3-endo-dimethanol]	84 °C
COc1ccc(C(C)(C)C)cc1B(O)O [5-tert-butyl-2-methoxybenzeneboronic acid]	105 °C
COc1ccc(C(C)(C)C)cc1C(=O)O [5-tert-butyl-2-methoxybenzoic acid]	75 °C
CCSC(SCC)C(O)C(O)C(O)C(O)CO (stereo unspecified) [6,6-di(ethylthio)hexane-1,2,3,4,5-pentaol]	128 °C
